The results in this text go back to patent US20070298105A1, “METHODS OF TREATING CONDITIONS BY SUSTAINED RELEASE ADMINISTRATION OF BENZIMIDAZOLE DERIVATIVES” (priority 2006, published 2007).

For one data set, the system named is intragastric pH. In words: Colonic intubation study: intragastric pH profile (percent of time with pH >4). It counts as in vivo, human. The settings on record: for Mean percent of time with pH >4: TRT E: esomeprazole 40 mg oral tablet. The method, then:
A single-dose, open-label, partially randomized, five-treatment, five-period, crossover pilot study was performed in healthy males to determine relative pharmacokinetics of rabeprazole, and comparators when dosed either orally or colonically. The study was a single dose study with blood sampling up to 24 hours following initiation.
Treatments A and B were rabeprazole sodium solution dosed to provide 30 and 60 mg, respectively, over 20 hours in the transverse colon of the subjects. Colonic dosing occurred using a nasoenteral tube. Treatment C was a single 20 mg dose of rabeprazole sodium oral enteric coated tablets dosed orally. Treatment D was placebo (200 mL of water) dosed orally.
The intragastric pH profile was analyzed based on the percentage of time that the intragastric pH was above 4, which was calculated for the full 24 hours. In addition, the mean pH value over 5 time intervals of 6 hours each during the 30-hr sampling time was also estimated.

Data set [1] in a line: Colonic intubation study: plasma pharmacokinetics of rabeprazole and esomeprazole. It counts as in vivo, human. As to conditions: male, human, plasma, po, 40 mg; for AUC(0-inf): read-out: AUCinf (mean). The protocol: A single-dose, open-label, partially randomized, five-treatment, five-period, crossover pilot study was performed in healthy males to determine relative pharmacokinetics of rabeprazole, and comparators when dosed either orally or colonically. The study was a single dose study with blood sampling up to 24 hours following initiation. […] Colonic dosing occurred using a nasoenteral tube. Treatment C was a single 20 mg dose of rabeprazole sodium oral enteric coated tablets dosed orally. Treatment D was placebo (200 mL of water) dosed orally. […] For subjects whose apparent elimination rate constant [k] could not be properly determined, the AUC to infinity [AUCinf]) was calculated based on the median apparent elimination constant [k] of the subjects with available t1/2 values in the same treatment period. […] The intragastric pH profile were determined.

The mark [2] stands for this setting: TRT E: esomeprazole 40 mg oral tablet, N = 19.
The mark [3] stands for this setting: TRT E: esomeprazole 40 mg oral tablet, subset N = 14.

A word on the AUC(0-t): it is the area under the concentration-time curve up to a stated or last time point. Usually Cmax stands for the maximum level reached in the sampled fluid or tissue.

Read-outs that look alike come from different tables or passages of the source.

On to `COc1ccc2nc([S@@+]([O-])Cc3ncc(C)c(OC)c3C)[nH]c2c1` [Esomeprazole], for which the “Mean percent of time with pH >4” value came out at 57.0% in the data set with intragastric pH (0-6 hr (10 am-4 pm), N = 19); 64.3% in the data set on intragastric pH (0-6 hr (10 am-4 pm), subset N = 14); 76.3% in the data set on intragastric pH (6-12 hr (4 pm-10 pm), N = 19); 87.0% in the data set on intragastric pH (6-12 hr (4 pm-10 pm), subset N = 14); 36.6% in the data set with intragastric pH (12-18 hr (10 pm-4 am), N = 19); 42.8% in the data set with intragastric pH (12-18 hr (10 pm-4 am), subset N = 14). Further, the “Mean percent of time with pH >4” value in the data set on intragastric pH (18-24 hr (4 am-10 am), N = 19) is recorded as 56.0%; in the data set on intragastric pH (18-24 hr (4 am-10 am), subset N = 14) it was 60.1%; in the data set on intragastric pH (24-30 hr (10 am-4 pm), N = 19), 49.5%; in the data set on intragastric pH (24-30 hr (10 am-4 pm), subset N = 14) it was 57.1%; in the data set with intragastric pH (24-hr average, N = 19), 56.5%; with intragastric pH (24-hr average, N = 19, listed as esomeprazole), 57%. For the same compound, in the data set on intragastric pH (24-hr average, subset N = 14), the “Mean percent of time with pH >4” value is 63.5%. In the data set with intragastric pH (first 6 hours of treatment, esomeprazole treatment), the “effect on percentage of time with pH >4 compared to placebo” value is “significant increase”. Moreover, the AUC(0-t) in data set [1] (setting [2]) stood at 1.87 µg·h/mL; in data set [1] (setting [3]), 2.27 µg·h/mL. Also, the results for the AUC(0-inf) in data set [1] (setting [2]) and in data set [1] (setting [3]) were 1.91 µg·h/mL and 2.31 µg·h/mL, respectively. In addition, the half-life was 48 min in data set [1] (TRT E: esomeprazole 40 mg oral tablet, N = 19, read-out: t1/2 (median) (converted)) and about 60 min in data set [1] (oral administration of 40 mg esomeprazole, read-out: median half-life (converted)). Further, the Cmax came out at 0.727 µg/mL in data set [1] (TRT E: esomeprazole 40 mg oral tablet, single dose, healthy males, N = 19) and 0.8 µg/mL in data set [1] (setting [3]).
